Assay results as given in Sander's compilation of Henry's law constants (doi:10.1021/es00033a018).

Assay: Henry solubility constant Hcp at 298.15 K (mol/(m3 Pa))
Settings: reference: Wright et al. (1992)

| SMILES | Henry solubility constant Hcp |
| --- | --- |
| ClC(Cl)(Cl)Cl [tetrachloromethane] | 0.00029 |
| CC(Cl)CCl (stereo unspecified) [1,2-dichloropropane] | 0.0036 |
| ClC=C(Cl)Cl [trichloroethene] | 0.0011 |
| BrC(Br)Br [tribromomethane] | 0.024 |
| ClCC(Cl)Cl [1,1,2-trichloroethane] | 0.011 |
| ClC=CCCl [1,3-dichloropropene] | 0.0064 |
| ClCCl [dichloromethane] | 0.0039 |
| BrCBr [dibromomethane] | 0.011 |
| CC(Cl)(Cl)Cl [1,1,1-trichloroethane] | 0.0006 |
| ClCC(Cl)(Cl)Cl [1,1,1,2-tetrachloroethane] | 0.004 |
| ClC(Cl)C(Cl)Cl [1,1,2,2-tetrachloroethane] | 0.022 |
